Patent publication US20240208896A1, “PRODRUGS OF KV7 CHANNEL OPENERS” (Xyzagen, Inc., priority 2021, published 2024)
Where two headings read alike, the source gives them in different places.

Tests used:
[1] = biological target: Human Kv7.2/7.3 (Homo sapiens, UniProt O43525+O43526); assay: In vitro screen of Kv7.2/7.3 voltage gated potassium channels (FluxOR, FLIPR); format: cell-based; settings: Human Kv7.2/7.3 cells; FluxOR fluorescence; 0.03 to 30 μM
Experimental: Human Kv7.2/7.3 cells are harvested, counted and seeded in black, clear-bottomed 96 well plates at a density of 50,000 cells per well in 100 μl volume and incubated overnight. The following day, media was removed and 40 μl of loading buffer (4.895 mL HBSS:HEPES, 50 μL probenecid, 50 μL power load, 5 μl FluxOR reagent) was added and incubated at room temperature for 30 minutes. After incubation loading buffer was removed and 40 μl of assay buffer added (4.45 ml HBSS:HEPES, 500 μl FluxOR assay buffer and 50 μL probenecid) and incubated for 10 minutes.

[2] = Rat PK at equimolar dose to Ezogabine (20 mg/kg) in 0.5% methylcellulose; settings: for AUClast/D / Cmax/D: male cannulated rats, equimolar to Ezogabine 20 mg/kg, 0.5% methylcellulose, analyte the dosed prodrug
Experimental: (§1) Blood samples were collected at the same time points over 24 hours to generate a concentration time profile. Two male rats were dosed per group. Plasma samples were analyzed by LC/MS/MS and the resulting concentration time profiles and PK parameters are provided.
as §1, §1

[3] = 1000 ng/mL
Experimental: Plasma was collected by the biomaterial vendor and kept frozen at −20° C.
The samples were analyzed by HPLC separation and mass spectrometry detection for prodrug amount, relative to a baseline time 0 control sample. Triplicate samples were generated at each time point and the peak area response was averaged and converted to a percent of baseline control.

[4] = Benchtop solvent stability exposed to light, HPLC-UV 230 nm, up to 7 days; format: physicochemical; settings: for Stability in solvent: benchtop, exposed to light
Experimental: Compounds in solvent were left on the benchtop exposed to light for up to 7 days since it is known that Compound 1 will degrade with light within 3-7 days.
Stability was assessed by taking an aliquot from the solubility vials at each test day. A single replicate was injected for each test condition.
Samples were injected onto an HPLC system with an aqueous mobile phase and acetonitrile organic phase and compounds were separated on a C8 50×2 mm column. Wavelength 230 nm was monitored for absorption and integrated for peak area while the mass spectrometer was used to confirm mass. Samples were tested on Day 1 and on subsequent days through Day 7.

[5] = Pharmacokinetics of ezogabine prodrugs in rat (IV, IM, PO); settings: rat, in vivo, po
Experimental: Blood was diluted by 10% with these stabilizers.
Extraction of the molecules was conducted by taking a 50 uL aliquot of plasma and adding 200 uL of acetonitrile containing 200 ng/mL tolbutamide as the internal standard. Samples were precipitated in a 96 well plate, centrifuges and an aliquot transferred to a new plate, dried down under heat and nitrogen and then reconstituted in the initial mobile phase conditions of the LC-MS/MS method. […] A standard curve was prepared from 5000 ng/mL to 1 ng/mL for each analyte. Concentration data from the bioanalytical run was analyzed by Phoenix Winnonlin version 8 for noncompartmental PK analysis, plotting of concentration time curves and tabulation of PK parameters.
150 uL of blood were collected at predesignated time points. At completion of the study animals were asphyxiated by carbon dioxide gas and exsanguinated for euthanasia.

[6] = Acid and organic solution stability, HPLC-UV 250 nm; settings: 5 mg/mL; for Degradation / conversion to ezogabine in solution: acidic solutions and organic solvents, up to 3 weeks
Experimental: An HPLC-UV Vis method was developed using 0.1% Formic acid in water as mobile phase A and 0.1% Formic acid in acetonitrile as mobile Phase B. A gradient method was developed ramping from 10% A to 90% B over 8 minutes and then returning to 10% A at 8.5 minutes on a 4.6×50 mm Zorbax C-18 column. Injections of 10 uL of stability solutions were injected for analyte detection.
[…] Aliquots were collected at serial time points and then diluted to a nominal concentration of 100 ug/mL for injection to the HPLC and 250 nm monitored by the diode array detector. Data at approximately 10 days is presented.
Aliquots were collected at serial time points and then diluted to a nominal concentration of 100 ug/mL for injection to the HPLC and 250 nm monitored by the diode array detector.
(§2) It was also evaluated at 2 N HCl at 37° C. Aliquots were collected at serial time points and then diluted to a nominal concentration of 100 ug/mL for injection to the HPLC and 250 nm monitored by the diode array detector.
as §2, §2, §2

[7] = Solvent solubility assessment by visual inspection; format: physicochemical
Experimental: Compounds were weighed and placed into a 4 dram vials and solvents were added to the target concentration. Compounds were vortex and visually inspected for particulates and considered soluble if clear upon visual inspection with and without magnification. Solubility was reported as either greater than (>) or less than (<) from the prepared concentration. […] It was evaluated at 10 mg/mL in 0.1 N NaCl and was freely soluble. It was evaluate at 1 mg/mL in 0.1 N NaOH and 0.1 N Na2HPO4 and was freely soluble. In ethanol and methanol it was freely soluble at a concentration of 75 mg/mL. […] It was freely soluble at 75 mg/mL in methanol and ethanol. It was soluble at 1 mg/mL in 1N HCl.

[8] = test system: CCI model of neuropathic pain; assay: CCI model of neuropathic pain (pin prick, von Frey); format: in vivo, Sprague Dawley rat; settings: CCI rats, 1 h after pretreatment
Experimental: Compound 3 was tested for reversal of mechanical hypersensitivity to the pin prick test for hindlimb paw withdraw and the von Frey hairs for gram force mechanical allodynia in the CCI model of neuropathic pain. Male Sprague Dawley rats (n=8/group) were tested for baseline sensitivity on Day 1 (ipsilateral and contralateral paws) and administered XYG-203 orally; 40 mg/kg on Day 1, 20 mg/kg Day 3, 10 mg/kg Day 5, 5 mg/kg Day 7, 1 mg/kg Day 10 and baseline on Day 12. Mechanical hypersensitivity was tested 1 h after pretreatment. Data (mean±SD) were analyzed with a repeated measures ANOVA with Dunnet's adjustment for multiple comparisons.

[9] = test system: MES induced seizures; assay: MES assay in CF-1 mice, Compound 28 IP dose response; format: in vivo, CF-1 mouse; settings: for Animals protected from MES induced seizures: 30 minutes after administration

Human Kv7.2/7.3, sequence (O43526 whole entry): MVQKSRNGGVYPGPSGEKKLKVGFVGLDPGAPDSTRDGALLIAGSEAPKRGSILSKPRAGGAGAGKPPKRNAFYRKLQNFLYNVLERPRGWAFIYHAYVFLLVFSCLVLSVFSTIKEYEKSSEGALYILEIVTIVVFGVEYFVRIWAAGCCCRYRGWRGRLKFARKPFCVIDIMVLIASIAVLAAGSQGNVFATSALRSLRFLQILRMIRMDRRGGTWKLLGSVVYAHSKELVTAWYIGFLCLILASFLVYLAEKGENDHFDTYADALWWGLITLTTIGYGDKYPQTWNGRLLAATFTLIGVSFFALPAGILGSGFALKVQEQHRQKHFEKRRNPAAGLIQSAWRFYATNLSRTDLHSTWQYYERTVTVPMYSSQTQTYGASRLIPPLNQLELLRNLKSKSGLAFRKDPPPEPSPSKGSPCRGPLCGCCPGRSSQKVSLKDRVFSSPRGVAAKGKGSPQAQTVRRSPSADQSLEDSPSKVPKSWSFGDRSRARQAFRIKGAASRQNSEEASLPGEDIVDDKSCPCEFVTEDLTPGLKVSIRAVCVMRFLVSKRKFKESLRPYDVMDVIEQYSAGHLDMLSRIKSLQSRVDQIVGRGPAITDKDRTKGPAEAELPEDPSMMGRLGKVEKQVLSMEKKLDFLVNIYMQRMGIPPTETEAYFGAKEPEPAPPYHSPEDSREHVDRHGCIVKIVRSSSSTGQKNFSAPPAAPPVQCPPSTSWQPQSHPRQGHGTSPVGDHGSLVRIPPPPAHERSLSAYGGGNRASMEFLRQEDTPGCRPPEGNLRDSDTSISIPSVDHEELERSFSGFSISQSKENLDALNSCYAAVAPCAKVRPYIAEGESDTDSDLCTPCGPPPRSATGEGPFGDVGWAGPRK
Human Kv7.2/7.3, sequence (O43525 whole entry): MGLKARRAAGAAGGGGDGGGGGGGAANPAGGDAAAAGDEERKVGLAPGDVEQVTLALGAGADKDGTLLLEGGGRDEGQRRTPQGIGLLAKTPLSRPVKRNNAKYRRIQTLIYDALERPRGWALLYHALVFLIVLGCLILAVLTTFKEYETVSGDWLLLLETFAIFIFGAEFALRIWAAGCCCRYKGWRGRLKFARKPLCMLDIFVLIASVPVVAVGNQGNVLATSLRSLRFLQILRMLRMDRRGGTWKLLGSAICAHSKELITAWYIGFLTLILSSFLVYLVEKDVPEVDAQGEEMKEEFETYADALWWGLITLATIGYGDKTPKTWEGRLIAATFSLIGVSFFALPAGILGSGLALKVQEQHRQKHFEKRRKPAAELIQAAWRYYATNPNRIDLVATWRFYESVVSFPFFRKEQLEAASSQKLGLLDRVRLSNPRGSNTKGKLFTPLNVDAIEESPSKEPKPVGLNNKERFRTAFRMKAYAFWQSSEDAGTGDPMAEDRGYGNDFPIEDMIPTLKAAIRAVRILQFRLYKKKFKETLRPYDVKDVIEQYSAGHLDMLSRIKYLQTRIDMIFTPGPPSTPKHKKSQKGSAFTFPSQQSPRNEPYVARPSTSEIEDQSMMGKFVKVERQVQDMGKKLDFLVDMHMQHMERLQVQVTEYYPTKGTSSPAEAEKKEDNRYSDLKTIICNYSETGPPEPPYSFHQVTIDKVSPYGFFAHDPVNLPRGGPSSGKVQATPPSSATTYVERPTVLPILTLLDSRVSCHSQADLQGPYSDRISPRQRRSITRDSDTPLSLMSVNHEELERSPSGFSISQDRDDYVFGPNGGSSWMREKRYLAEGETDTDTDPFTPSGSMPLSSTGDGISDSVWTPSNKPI

SMILES: CCOC(=O)Nc1ccc(NCc2ccc(F)cc2)cc1NC(=O)OC(C)OC(=O)C(C)C (stereo not shown) [Compound 3]
- Activity against the primary target of Kv7.2/7.3 [1]: inactive
- AUClast/D [2]: 0.0136 ng·h/mL/mg/kg
- Cmax/D [2]: 0.0273 ng/mL/mg/kg
- Total exposure of ezogabine relative to ezogabine on a given molar dose ([2]; male, rat, in vivo): > 2 fold
- Time by which prodrug is degraded in plasma ([3]; mouse): ≤ 1 h
- Time by which prodrug is degraded in plasma ([3]; rat): ≤ 1 h
- Stability in solvent ([4]; 0.1 N HCl): appears to be stable over 4 days
- Change of solubility over time ([4]; 0.1N Na2HPO4, H2O, 0.1N NaCl, Day 1 to Day 3): increases in solubility over time
- Stability in solvent ([4]; 1 N HCl): not stable in 1 N HCl over 7 days
- Stability in solvent ([4]; ethanol and methanol): soluble and stable through 3 days in ethanol and methanol, while on Day 4 it exhibits degradation
- Exposure of the prodrug itself in systemic circulation [5]: very little exposure
- Colour of stability solution [6]: clear and colorless through Day 18
- Ezogabine Area (formed from the prodrug) ([6]; 0.1N HCl, room temp., normal light, 433 h): 400 mAU
- Ezogabine Area (formed from the prodrug) ([6]; 1N HCl, room temp., normal light, 97 h): 2881 mAU
- Ezogabine Area (formed from the prodrug) ([6]; Acetonitrile, room temp., normal light, 435 h): 51 mAU
- Ezogabine Area (formed from the prodrug) ([6]; Ethanol, room temp., normal light, 390 h): 43 mAU
- Ezogabine Area (formed from the prodrug) ([6]; Methanol, room temp., normal light, 435 h): 41 mAU
- Degradation / conversion to ezogabine in solution [6]: converts to ezogabine under acidic conditions but does not in organic solvent
- Colour of stability solution ([6]; 9 days): turned a golden yellow by Day 9
- % Remaining ([6]; 390 h): 97.6%
- % Remaining ([6]; buffer, 97 h): 1.78%
- % Remaining ([6]; buffer, 433 h): 11.8%
- Solubility ([7]; 0.1N HCl): <1 g/L
- Solubility ([7]; 0.1 N Na2HPO4, aqueous buffer, thermodynamic from solid, read-out: Solubility (freely soluble at tested concentration)): < 1 g/L
- Solubility ([7]; 0.1N NaCl): <1 g/L
- Solubility ([7]; 0.1 N NaCl, saline or isotonic, thermodynamic from solid, read-out: Solubility (freely soluble at tested concentration)): < 1 g/L
- Solubility ([7]; 0.1N NaOH): <1 g/L
- Solubility ([7]; 0.1 N NaOH, aqueous buffer, thermodynamic from solid, read-out: Solubility (freely soluble at tested concentration)): < 1 g/L
- Solubility ([7]; 0.1 Na2HPO4): <1 g/L
- Solubility ([7]; 1N HCl): >1 g/L
- Solubility ([7]; Ethanol): >75 g/L
- Solubility ([7]; Methanol): >75 g/L
- Solubility ([7]; Water): <1 g/L
- Solubility ([7]; aqueous buffer, thermodynamic from solid, 1N HCl, read-out: Solubility (soluble at tested concentration)): > 1 g/L
- Solubility ([7]; ethanol, organic solvent or mixture, thermodynamic from solid, read-out: Solubility (freely soluble at tested concentration)): > 75 g/L
- Solubility ([7]; methanol, organic solvent or mixture, thermodynamic from solid, read-out: Solubility (freely soluble at tested concentration)): > 75 g/L
- Solubility ([7]; simulated gastric fluid, thermodynamic from solid, 0.1N HCl, read-out: Solubility (freely soluble at tested concentration)): < 1 g/L
- Solubility ([7]; water, thermodynamic from solid, read-out: Solubility (freely soluble at tested concentration)): < 1 g/L
- Reversal of mechanical hypersensitivity vs baseline ([8]; oral 5 mg/kg): the 95% confidence intervals did not cross the baseline mean
- Gram force to paw lift (von Frey) ([8]; oral 40 mg/kg): increased the gram force to paw lift significantly
- Reduction of latency of neuropathic ipsilateral paw withdrawal (pin prick) ([8]; oral 40 mg/kg, p=0.0003): 9.2 s

SMILES: CCOC(=O)Nc1ccc(NCc2ccc(F)cc2)cc1NC(=O)[C@H](N)CO [Compound 6]
- AUClast/D [2]: 199 ng·h/mL/mg/kg
- Cmax/D [2]: 233 ng/mL/mg/kg
- Colour of stability solution [6]: remained clear and colorless through Day 18
- Ezogabine Area (formed from the prodrug) ([6]; 1N HCl, room temp., normal light, 437 h): 58 mAU
- Ezogabine Area (formed from the prodrug) ([6]; 2N HCl 37C, 437 h): 461 mAU
- Ezogabine Area (formed from the prodrug) ([6]; 2N HCl, room temp., normal light, 437 h): 177 mAU
- Ezogabine Area (formed from the prodrug) ([6]; Methanol, room temp., normal light, 437 h): 184 mAU
- Degradation / conversion to ezogabine in solution [6]: very little degradation to ezogabine
- % Remaining ([6]; 437 h): 67.7%

SMILES: CCOC(=O)Nc1ccc(NCc2ccc(F)cc2)cc1NC(=O)C[C@@H](CN)CC(C)C [Compound 28]
- AUClast/D [2]: 83.0 ng·h/mL/mg/kg
- Cmax/D [2]: 9.31 ng/mL/mg/kg
- Animals protected from MES induced seizures ([9]; IP 12 mg/kg): 1 of 9
- Animals protected from MES induced seizures ([9]; IP 24 mg/kg): 3 of 9
- Protection against MES induced seizures ([9]; IP 1.5, 3, 6, 12 and 24 mg/kg): None of the doses showed complete protection
- Ezogabine Area (formed from the prodrug) ([6]; 0.1N HCl, room temp., normal light, 440 h): 0 mAU
- Ezogabine Area (formed from the prodrug) ([6]; 1N HCl, room temp., normal light, 440 h): 568 mAU
- Ezogabine Area (formed from the prodrug) ([6]; 2N HCl 37C, 440 h): 3593 mAU
- Ezogabine Area (formed from the prodrug) ([6]; 2N HCl, room temp., normal light, 440 h): 1462 mAU
- Ezogabine Area (formed from the prodrug) ([6]; Acetonitrile, room temp., normal light, 440 h): 248 mAU
- Ezogabine Area (formed from the prodrug) ([6]; Methanol, room temp., normal light, 440 h): 0 mAU
- Degradation / conversion to ezogabine in solution [6]: exhibits degradation to ezogabine with increasing strength of the acidic solution

SMILES: CCNC(=O)CC[C@H](N)C(=O)Nc1cc(NCc2ccc(F)cc2)ccc1NC(=O)OCC.Cl [Compound 29]
- AUClast/D [2]: 305 ng·h/mL/mg/kg
- Cmax/D [2]: 44.2 ng/mL/mg/kg
- Ezogabine Area (formed from the prodrug) ([6]; 0.1N HCl, room temp., normal light, 441 h): 0 mAU
- Ezogabine Area (formed from the prodrug) ([6]; 1N HCl, room temp., normal light, 441 h): 1241 mAU
- Ezogabine Area (formed from the prodrug) ([6]; 2N HCl 37C, 441 h): 1755 mAU
- Ezogabine Area (formed from the prodrug) ([6]; 2N HCl, room temp., normal light, 441 h): 1659 mAU
- Ezogabine Area (formed from the prodrug) ([6]; Methanol, room temp., normal light, 441 h): 0 mAU
- Degradation / conversion to ezogabine in solution [6]: exhibits degradation under acidic conditions and also conversion to ezogabine
